Values of other authors, collected in US20040139488A1, “Compositions and methods for enhancing disease resistance in fish” (priority 2002, published 2004).

Experiments:
Aeromonas salmonicida = details: synthesized, HPLC-purified peptide, in vitro
E. ictaluri = details: synthesized, HPLC-purified peptide, in vitro

cecropin B: mature cecropin B from Hyalophora cecropia (SEQ ID NO:19), synthesized peptide purified by high-pressure liquid chromatography (KWKVFKKIEKMGRNIRNGIVKAGPAIAVLGEAKALG; listed as Hyalophora cecropia)
bactericidal activity against Aeromonas salmonicida (Aeromonas salmonicida): possess the predicted bactericidal activity
bactericidal activity against E. ictaluri (E. ictaluri): possess the predicted bactericidal activity
